From patent publication EP3653608A1, “ISOQUINOLINE BIARYL COMPOUNDS, A PHARMACEUTICAL COMPOSITION COMPRISING THE SAME, AND USES THEREOF” (Ludwig-Maximilians-Universität München, priority 2018, dated 2020)
“Also recorded” adds a separate entry of the source. Where two headings read alike, the source gives them in different places. One block for each compound: values may come before it.

Columns and labels:
[1] = tested on: microtubule network; assay: Microtubule perturbation in cellulo, immunofluorescence staining of α-tubulin; type: cell-based, human; settings: HeLa cells, 24 h incubation, A-2 in PBS, A-3 with 0.25% DMSO cosolvent
[2] = tested on: HeLa cells; assay: Cell cycle analysis by flow cytometry, propidium iodide staining; type: cell-based, human; settings: 24 h incubation, propidium iodide DNA staining, phosphate
[3] = tested on: HeLa cell line; assay: Antiproliferative MTT assay, HeLa cell line; type: cell-based; settings: Homo sapiens
[4] = tested on: tubulin polymerisation dynamics; assay: Inhibition of tubulin polymerisation dynamics in cellulo, confocal video microscopy of EB3-YFP comets; type: cell-based, human; settings: 0.24 µM, live HeLa cells expressing EB3-YFP
Description: In videos this marker manifests as bright well-defined moving "comets", and in still images as bright elongated streaks, when MTs are polymerising normally as in the control image (frame "ctrl"). […] "DMSO ctrl" denotes the cosolvent control for the A-3 images (i.e. 0.25% DMSO but no compound) while "PBS ctrl" denotes the control for the A-2 images (no compound or cosolvent applied); these controls show the expected structure of the microtubule network when no inhibition is applied.

[5] = tested on: Balb/c mice; assay: Safe dosing parameters in vivo in mice
[6] = target: CYP2C9 (Homo sapiens, UniProt P11712); assay: in vitro; settings: probe fluorogenic CYP substrate (not named)
[7] = human, 40 min, 2 uM
[8] = physchem; settings: pH 7.4
[9] = target: CYP2C19 (Homo sapiens, UniProt P33261); assay: Cytochrome P450 inhibition with fluorogenic substrate, CYP2C19; settings: CYP2C19, 10 µM, 10 minute preincubation, 60 min reaction
[10] = Metabolic stability in mouse liver microsomes; settings: 2 uM, over 40 minutes, 37°C
[11] = target: CYP3A4 (Homo sapiens, UniProt P08684); assay: in vitro; settings: probe fluorogenic CYP substrate (not named)
[12] = target: T1, CYP1A2 (Homo sapiens, UniProt P05177); assay: Cytochrome P450 inhibition with fluorogenic substrate, CYP1A2; settings: CYP1A2, 10 µM, 10 minute preincubation, 25 minute reaction
T1 sequence (P05177 1-516): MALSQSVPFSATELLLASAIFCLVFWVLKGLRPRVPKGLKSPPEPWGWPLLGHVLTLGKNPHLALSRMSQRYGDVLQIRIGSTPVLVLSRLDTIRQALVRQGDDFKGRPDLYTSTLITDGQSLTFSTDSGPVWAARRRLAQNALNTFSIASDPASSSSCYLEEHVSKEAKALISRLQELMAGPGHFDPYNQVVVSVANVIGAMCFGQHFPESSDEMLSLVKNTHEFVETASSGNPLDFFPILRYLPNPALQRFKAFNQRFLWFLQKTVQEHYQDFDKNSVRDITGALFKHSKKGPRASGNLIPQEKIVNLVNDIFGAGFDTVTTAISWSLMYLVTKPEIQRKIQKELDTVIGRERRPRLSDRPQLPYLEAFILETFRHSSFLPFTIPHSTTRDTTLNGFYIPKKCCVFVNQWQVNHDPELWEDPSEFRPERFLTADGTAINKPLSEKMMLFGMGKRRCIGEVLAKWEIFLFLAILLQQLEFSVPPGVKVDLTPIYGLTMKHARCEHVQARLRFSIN

[13] = tested on: HL60 cell line; assay: Antiproliferative MTT assay, HL60 cell line; type: cell-based; settings: Homo sapiens, HL-60, 48 h incubation
[14] = target: CYP2D6 (Homo sapiens, UniProt P10635); assay: in vitro; settings: probe fluorogenic CYP substrate (not named)
Sequence of CYP2D6 (P10635 whole entry): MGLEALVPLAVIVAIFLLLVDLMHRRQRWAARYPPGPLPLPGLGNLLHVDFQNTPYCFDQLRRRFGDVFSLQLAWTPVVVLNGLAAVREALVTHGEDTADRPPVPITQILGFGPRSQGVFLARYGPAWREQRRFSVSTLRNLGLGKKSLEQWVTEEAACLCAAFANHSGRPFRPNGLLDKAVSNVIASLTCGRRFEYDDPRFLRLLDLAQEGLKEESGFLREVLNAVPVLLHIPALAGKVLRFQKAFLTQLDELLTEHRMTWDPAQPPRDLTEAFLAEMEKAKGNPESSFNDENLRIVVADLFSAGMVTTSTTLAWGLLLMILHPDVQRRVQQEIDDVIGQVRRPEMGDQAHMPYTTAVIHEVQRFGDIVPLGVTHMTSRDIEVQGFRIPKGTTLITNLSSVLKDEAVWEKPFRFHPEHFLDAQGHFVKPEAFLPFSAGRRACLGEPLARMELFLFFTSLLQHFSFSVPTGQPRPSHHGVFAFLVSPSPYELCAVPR

Sequence of CYP3A4 (P08684 whole entry): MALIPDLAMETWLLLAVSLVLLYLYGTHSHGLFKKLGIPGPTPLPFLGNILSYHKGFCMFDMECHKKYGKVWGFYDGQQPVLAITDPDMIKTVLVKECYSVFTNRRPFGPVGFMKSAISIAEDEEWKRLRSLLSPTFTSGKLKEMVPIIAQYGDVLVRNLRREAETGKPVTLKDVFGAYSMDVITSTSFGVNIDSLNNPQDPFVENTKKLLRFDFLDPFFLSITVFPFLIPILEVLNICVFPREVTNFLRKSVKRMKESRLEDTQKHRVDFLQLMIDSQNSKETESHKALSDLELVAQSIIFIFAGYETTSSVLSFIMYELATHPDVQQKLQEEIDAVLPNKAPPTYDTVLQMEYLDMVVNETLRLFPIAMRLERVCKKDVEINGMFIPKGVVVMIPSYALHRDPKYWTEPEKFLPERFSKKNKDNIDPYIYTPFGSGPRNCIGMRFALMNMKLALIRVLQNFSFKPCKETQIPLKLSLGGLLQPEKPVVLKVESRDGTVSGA
Sequence of CYP2C19 (P33261 whole entry): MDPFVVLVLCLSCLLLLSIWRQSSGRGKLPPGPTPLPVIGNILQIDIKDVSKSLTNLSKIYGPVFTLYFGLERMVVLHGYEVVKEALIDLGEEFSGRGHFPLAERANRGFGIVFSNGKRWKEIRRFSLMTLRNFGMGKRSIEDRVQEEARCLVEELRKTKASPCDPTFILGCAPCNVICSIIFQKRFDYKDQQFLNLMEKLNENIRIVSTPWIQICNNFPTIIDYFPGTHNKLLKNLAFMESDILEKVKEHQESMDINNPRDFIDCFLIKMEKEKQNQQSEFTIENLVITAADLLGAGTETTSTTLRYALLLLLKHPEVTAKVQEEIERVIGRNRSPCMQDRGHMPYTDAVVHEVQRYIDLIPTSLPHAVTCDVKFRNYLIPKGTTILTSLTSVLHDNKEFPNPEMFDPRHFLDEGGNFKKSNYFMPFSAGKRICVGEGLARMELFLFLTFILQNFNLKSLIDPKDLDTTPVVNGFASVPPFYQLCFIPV
Sequence of CYP2C9 (P11712 whole entry): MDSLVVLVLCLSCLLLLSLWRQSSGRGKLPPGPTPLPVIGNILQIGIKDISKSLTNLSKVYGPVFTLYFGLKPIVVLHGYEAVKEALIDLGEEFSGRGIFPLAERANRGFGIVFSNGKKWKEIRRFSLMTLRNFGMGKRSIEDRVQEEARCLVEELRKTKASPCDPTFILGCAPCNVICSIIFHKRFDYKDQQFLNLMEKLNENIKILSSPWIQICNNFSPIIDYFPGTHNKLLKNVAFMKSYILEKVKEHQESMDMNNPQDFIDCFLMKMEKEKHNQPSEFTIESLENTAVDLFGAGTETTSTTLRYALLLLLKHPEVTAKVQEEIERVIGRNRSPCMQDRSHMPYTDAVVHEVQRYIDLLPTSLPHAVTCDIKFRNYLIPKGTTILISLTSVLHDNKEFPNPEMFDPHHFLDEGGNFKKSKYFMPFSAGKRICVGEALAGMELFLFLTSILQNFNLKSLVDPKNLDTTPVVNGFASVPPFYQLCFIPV

SMILES: COc1cc2c(-c3cc(OC)c(OC)c(OC)c3)nccc2cc1OP(=O)([O-])[O-].[Na+].[Na+] [A-2, disodium 7-methoxy-1-(3,4,5-trimethoxyphenyl)isoquinolin-6-yl phosphate]
- microtubule network perturbation ([1]; phosphate): pronounced disorganisation and destruction of the microtubule network
- cell cycle effect [2]: extensive cell cycle arrest leading to accumulation of cells in the G2/M phase; also recorded: dose-dependently causes accumulation of cells at the G2/M phase
- IC50 ([3]; HeLa, 48 h): 130 nM
- time until the comets stopped and vanished [4]: ≤ 0.5 min
- tolerability ([5]; repeated dosage 25 mg/kg i.p., 3 administrations at 48-hour intervals, Balb/c mice): tolerated compound administration
- tolerability ([5]; repeated dosage 25 mg/kg i.v., 3 administrations at 48-hour intervals, Balb/c mice): tolerated compound administration
- tolerability ([5]; single dosage 31.5 mg/kg i.p., male and female Balb/c mice): tolerated by all mice tested
- tolerability ([5]; single dosage 50 mg/kg i.v., male and female Balb/c mice): tolerated by all mice tested

- inhibition at 25 min, 10 µM [6]: 13 to 19%
- degradation [7]: 31%
- logD [8]: 2.18
- apparent enhancement of activity [9]: 50%
- IC50 ([3]; HeLa cell line, MTT assay, 48 h incubation, read-out: IC50): 240 nM
- degradation [10]: 33%
- inhibition at 25 min, 10 µM [11]: 13 to 19%
- inhibition [12]: zero
- IC50 [13]: 100 nM
- inhibition at 25 min, 10 µM [14]: 13 to 19%
SMILES: COc1cc2c(-c3cc(OC)c(OC)c(OC)c3)nccc2cc1O [A-1, 7-methoxy-1-(3,4,5-trimethoxyphenyl)isoquinolin-6-ol]

SMILES: Cn1c(=O)c2c(ncn2C)n(C)c1=O [caffeine, reference compound]
- degradation [7]: < 10%

- IC50 [13]: 280 nM
SMILES: COc1ccc2ccnc(-c3cc(OC)c(OC)c(OC)c3)c2c1 [A-3, 7-methoxy-1-(3,4,5-trimethoxyphenyl)isoquinoline]
- microtubule network perturbation [1]: pronounced disorganisation and destruction of the microtubule network
